Experiments:
Assay in all cases: in vitro susceptibility, MIC by mini broth dilution
Type in all cases: cell-based
[1] = tested on: Staphylococcus aureus CVCC26003; conditions: strain CVCC26003
Outline: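 S. aureus CVCC26003 was revived and subcultured twice, 20 h each at 35° C, on solid medium, then diluted 1:200 in CAMHB liquid medium. Compounds received an 11-step two-fold DMSO dilution in parallel duplicate rows. MIC was read by mini broth dilution per NCCLS guidance.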

[2] = tested on: Streptococcus equines CVCC556; conditions: strain CVCC556
Outline: (§1)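 NCCLS-based mini broth dilution; inoculum from twice-streaked 35° C/20 h cultures, 1:200 in broth; compound two-fold series in DMSO, 11 steps, duplicates.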

Haemophilus parasuis = tested on: Haemophilus parasuis
Outline: as §1

[3] = tested on: Actinobacillus pleuropneumoniae CVCC262; conditions: strain CVCC262
Outline: as §1

[4] = tested on: Pasteurella multocida CVCC399; conditions: strain CVCC399
Outline: as §1

SMILES | MIC values, Staphylococcus aureus CVCC26003 [1] | MIC values, Streptococcus equines CVCC556 [2] | MIC values, Haemophilus parasuis (Haemophilus parasuis) | MIC values, Actinobacillus pleuropneumoniae CVCC262 [3] [ug/mi] | MIC values, Pasteurella multocida CVCC399 [4] [ug/mi]
CC[C@H]1OC(=O)[C@H](C)[C@@H](O[C@H]2C[C@@](C)(OC)[C@](O)(CNc3ccc(C)c(C)c3)[C@H](C)O2)[C@H](C)[C@@H](O[C@@H]2O[C@H](C)C[C@H](N(C)C)[C@H]2O)[C@](C)(O)C[C@@H](C)NC[C@H](C)[C@@H](O)[C@]1(C)O [syzx-84, (2R,3S,4R,5S,8R,10R,11R,12S,13S,14R)-13-[(2,6-dideoxy-3-C-methyl-3-O-methyl-4-C-[(3,4-dimethylphenyl-amino)-methyl]-α-L-ribopyranosyl)oxy]-2-ethyl-3,4,10-trihydroxy-3,5,8,10,12,14-hexamethyl-11-[[3,4,6-trideoxy-3-(dimethylamino)-β-D-xylo-hexopyranosy]oxy]-1-oxa-7-azacyclopentadecan-15-one] | ≦0.25 ug/mi | ≦0.25 ug/mi | ≦0.25 ug/mi | 2 | 0.25
CC[C@H]1OC(=O)[C@H](C)[C@@H](O[C@H]2C[C@@](C)(OC)[C@](O)(CNc3ccc(F)cn3)[C@H](C)O2)[C@H](C)[C@@H](O[C@@H]2O[C@H](C)C[C@H](N(C)C)[C@H]2O)[C@](C)(O)C[C@@H](C)NC[C@H](C)[C@@H](O)[C@]1(C)O [syzx-86, (2R,3S,4R,5S,8R,10R,11R,12S,13S,14R)-13-[(2,6-dideoxy-3-C-methyl-3-O-methyl-4-C-[(5-fluoropyridin-2-yl-amino)-methyl]-α-L-ribopyranosyl)oxy]-2-ethyl-3,4,10-trihydroxy-3,5,8,10,12,14-hexamethyl-11-[[3,4,6-trideoxy-3-(dimethylamino)-β-D-xylo-hexopyranosy]oxy]-1-oxa-7-azacyclopentadecan-15-one] | ≦0.25 ug/mi | ≦0.25 ug/mi | ≦0.25 ug/mi | 2 | 0.25
CC[C@H]1OC(=O)[C@H](C)[C@@H](O[C@H]2C[C@@](C)(OC)[C@](O)(CNCCN3CCCC3)[C@H](C)O2)[C@H](C)[C@@H](O[C@@H]2O[C@H](C)C[C@H](N(C)C)[C@H]2O)[C@](C)(O)C[C@@H](C)NC[C@H](C)[C@@H](O)[C@]1(C)O [syzx-90] | 2 ug/mi | 0.5 ug/mi | 2 ug/mi | 0.5 | 2
CC[C@H]1OC(=O)[C@H](C)[C@@H](O[C@H]2C[C@@](C)(OC)[C@](O)(CNCCc3ccncc3)[C@H](C)O2)[C@H](C)[C@@H](O[C@@H]2O[C@H](C)C[C@H](N(C)C)[C@H]2O)[C@](C)(O)C[C@@H](C)NC[C@H](C)[C@@H](O)[C@]1(C)O [syzx-91, (2R,3S,4R,5S,8R,10R,11R,12S,13S,14R)-13-[(2,6-dideoxy-3-C-methyl-3-O-methyl-4-C-[(2-pyridin-4-yl-ethylamino)-methyl]-α-L-ribopyranosyl)oxy]-2-ethyl-3,4,10-trihydroxy-3,5,8,10,12,14-hexamethyl-11-[[3,4,6-trideoxy-3-(dimethylamino)-β-D-xylo-hexopyranosy]oxy]-1-oxa-7-azacyclopentadecan-15-one] | 4 ug/mi | 1 ug/mi | 2 ug/mi | 2 | 2
CC[C@H]1OC(=O)[C@H](C)[C@@H](O[C@H]2C[C@@](C)(OC)[C@](O)(CNCc3ccccc3F)[C@H](C)O2)[C@H](C)[C@@H](O[C@@H]2O[C@H](C)C[C@H](N(C)C)[C@H]2O)[C@](C)(O)C[C@@H](C)NC[C@H](C)[C@@H](O)[C@]1(C)O [syzx-92, (2R,3S,4R,5S,8R,10R,11R,12S,13S,14R)-13-[(2,6-dideoxy-3-C-methyl-3-O-methyl-4-C-[(2-fluorobenzyl-amino)-methyl]-α-L-ribopyranosyl)oxy]-2-ethyl-3,4,10-trihydroxy-3,5,10,12,14-hexamethyl-11-[[3,4,6-trideoxy-3-(dimethylamino)-β-D-xylo-hexopyranosy]oxy]-1-oxa-7-azacyclopentadecan-15-one] | 1 ug/mi | 0.25 ug/mi | 0.5 ug/mi | 0.5 | 2
CC[C@H]1OC(=O)[C@H](C)[C@@H](O[C@H]2C[C@@](C)(OC)[C@](O)(CNCC3CCNCC3)[C@H](C)O2)[C@H](C)[C@@H](O[C@@H]2O[C@H](C)C[C@H](N(C)C)[C@H]2O)[C@](C)(O)C[C@@H](C)NC[C@H](C)[C@@H](O)[C@]1(C)O [syzx-93] | 32 ug/mi | 1 ug/mi | 8 ug/mi | 16 | 64
CC[C@H]1OC(=O)[C@H](C)[C@@H](O[C@H]2C[C@@](C)(OC)[C@](O)(CNc3cc(Cl)ccc3C)[C@H](C)O2)[C@H](C)[C@@H](O[C@@H]2O[C@H](C)C[C@H](N(C)C)[C@H]2O)[C@](C)(O)C[C@@H](C)NC[C@H](C)[C@@H](O)[C@]1(C)O [syzx-94, (2R,3S,4R,5S,8R,10R,11R,12S,13S,14R)-13-[(2,6-dideoxy-3-C-methyl-3-O-methyl-4-C-[(5-chloro-o-methylphenyl-amino)-methyl]-α-L-ribopyranosyl)oxy]-2-ethyl-3,4,10-trihydroxy-3,5,8,10,12,14-hexamethyl-11-[[3,4,6-trideoxy-3-(dimethylamino)-β-D-xylo-hexopyranosy]oxy]-1-oxa-7-azacyclopentadecan-15-one] | 1 ug/mi | 0.25 ug/mi | 0.5 ug/mi | 0.5 | 2
CC[C@H]1OC(=O)[C@H](C)[C@@H](O[C@H]2C[C@@](C)(OC)[C@](O)(CNc3ccccc3F)[C@H](C)O2)[C@H](C)[C@@H](O[C@@H]2O[C@H](C)C[C@H](N(C)C)[C@H]2O)[C@](C)(O)C[C@@H](C)NC[C@H](C)[C@@H](O)[C@]1(C)O [syzx-95, (2R,3S,4R,5S,8R,10R,11R,12S,13S,14R)-13-[(2,6-dideoxy-3-C-methyl-3-O-methyl-4-C-[(2-fluoro-phenyl-amino)-methyl]-α-L-ribopyranosyl)oxy]-2-ethyl-3,4,10-trihydroxy-3,5,8,10,12,14-hexamethyl-11-[[3,4,6-trideoxy-3-(dimethylamino)-β-D-xylo-hexopyranosy]oxy]-1-oxa-7-azacyclopentadecan-15-one] | 2 ug/mi | 0.5 ug/mi | 2 ug/mi | 2 | 2
CCC1OC(=O)C(C)C(OC2CC(C)(OC)C(O)(CNc3cc(C)ccc3F)C(C)O2)C(C)C(OC2OC(C)CC(N(C)C)C2O)C(C)(O)CC(C)NCC(C)C(O)C1(C)O [syzx-96, (2R,3S,4R,5S,8R,10R,11R,12S,13S,14R)-13-[(2,6-dideoxy-3-C-methyl-3-O-methyl-4-C-[(2-fluoro-5-methylphenyl-amino)-methyl]-α-L-ribopyranosyl)oxy]-2-ethyl-3,4,10-trihydroxy-3,5,8,10,12,14-hexamethyl-11-[[3,4,6-trideoxy-3-(dimethylamino)-β-D-xylo-hexopyranosy]oxy]-1-oxa-7-azacyclopentadecan-15-one] | 1 ug/mi | 0.25 ug/mi | 0.5 ug/mi | 0.5 | 2
CC[C@H]1OC(=O)[C@H](C)[C@@H](O[C@H]2C[C@@](C)(OC)[C@](O)(CNc3ccc(Cl)cc3C)[C@H](C)O2)[C@H](C)[C@@H](O[C@@H]2O[C@H](C)C[C@H](N(C)C)[C@H]2O)[C@](C)(O)C[C@@H](C)NC[C@H](C)[C@@H](O)[C@]1(C)O [syzx-97, (2R,3S,4R,5S,8R,10R,11R,12S,13S,14R)-13-[(2,6-dideoxy-3-C-methyl-3-O-methyl-4-C-[(2-methyl-4-chloro-phenyl-amino)-methyl]-α-L-ribopyranosyl)oxy]-2-ethyl-3,4,10-trihydroxy-3,5,8,10,12,14-hexamethyl-11-[[3,4,6-trideoxy-3-(dimethylamino)-β-D-xylo-hexopyranosy]oxy]-1-oxa-7-azacyclopentadecan-15-one] | 1 ug/mi | 0.5 ug/mi | 1 ug/mi | 128 | 4
CCCCN(C)C[C@]1(O)[C@H](C)O[C@@H](O[C@H]2[C@H](C)[C@@H](O[C@@H]3O[C@H](C)C[C@H](N(C)C)[C@H]3O)[C@](C)(O)C[C@@H](C)NC[C@H](C)[C@@H](O)[C@](C)(O)[C@@H](CC)OC(=O)[C@@H]2C)C[C@@]1(C)OC [syzx-98, (2R,3S,4R,5S,8R,10R,11R,12S,13S,14R)-13-[(2,6-dideoxy-3-C-methyl-3-O-methyl-4-C-[(N-methyl-butyl-amino)-methyl]-α-L-ribopyranosyl)oxy]-2-ethyl-3,4,10-trihydroxy-3,5,8,10,12,14-hexamethyl-11-[[3,4,6-trideoxy-3-(dimethylamino)-β-D-xylo-hexopyranosy]oxy]-1-oxa-7-azacyclopentadecan-15-one] | 1 ug/mi | 0.25 ug/mi | 0.5 ug/mi | 0.5 | 2

Reference: patent US9765105B2, “Macrolide compound” (Pulike Biological Engineering, Inc., priority 2013, dated 2017)
